Literature values as cited in US7183392B2, “Site-specific, covalent bioconjugation of proteins” (Zyomyx, Inc., priority 2000, dated 2007).

Assays:
[1] = aqueous and polar environments
[2] = molecular target: Helix A / Helix B parallel heterodimer; details: parallel heterodimer of Helix A with Helix B; read-out: dissociation constant
[3] = molecular target: RNA aptamer; details: 11 amino acid sequence, known RNA aptamer

Row | Kd [3] [nM] | Substance | solubility [1] | Kd [2] [nM]
1 |  | EYQALEKEVAQLEAENNALEKEVAQLEHEG [Helix A] | very soluble | ~6
2 |  | EYQALKKKVAQLKAKNNALKKKVAQLKHKG [Helix B, basic leucine zipper helix based on GCN4, per Wendt et al] | very soluble | ~6
3 | ~190 | substance P: 11 amino acid long peptide sequence that binds a known RNA aptamer |  | 
